Measurements as given in patent publication US12495798B2, “Nicotinamide compound and herbicidal composition comprising compound” (KOREA RESEARCH INSTITUTE OF CHEMICAL TECHNOLOGY, priority 2019, dated 2025).

Assays:
Type in all cases: in vivo
cocklebur [1] = assay: Herbicidal activity test against upland field weeds (soil treatment test); design: key to Soil treatment herbicidal activity, Cocklebur: 0 (no control); 100 (complete control); details: scale 0 (no control) to 100 (complete control); for Soil treatment herbicidal activity, Cocklebur: 50 g ai/ha
Procedure, shortened: (§1)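 Weed control scored visually on a 0 (none) to 100 (complete) scale versus untreated pots at 14 or 21 days in greenhouse (30±5 °C, 14 h light). Test compounds, 50 or 75 g a.i./ha in 50% acetone/0.1% Tween-20, hand-sprayed onto soil one day post-sowing.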

bindweed = assay: as above; design: key to Soil treatment herbicidal activity, Bindweed: 0 (no control); 100 (complete control); details: scale 0 (no control) to 100 (complete control)
Procedure, shortened: as §1

crabgrass = assay: as above; design: key to Soil treatment herbicidal activity, Crabgrass: 0 (no control); 100 (complete control); details: scale 0 (no control) to 100 (complete control); for Soil treatment herbicidal activity, Crabgrass: 50 g ai/ha
Procedure, shortened: as §1

fall panicum = assay: Herbicidal activity test against upland field weeds (foliar treatment test); details: Panicum dichotomiflorum, scale 0-100; for pest or weed control at 50 g/ha: 50 g ai/ha
Procedure, shortened: (§2)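 Visual 0–100 control ratings relative to untreated plants, taken 14 (or 21) days after spraying foliage at 50 or 75 g a.i./ha. Spray solution: 50% acetone with 0.1% Tween-20; plants kept in greenhouse at 30±5 °C, 14 h light/10 h dark.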

cocklebur [2] = assay: as above; details: Xanthium strumarium, scale 0-100; for pest or weed control at 50 g/ha: 50 g ai/ha
Procedure, shortened: as §2

barnyard grass [3] = assay: as above; details: Echinochloa crus-galli, scale 0-100; for pest or weed control at 50 g/ha: 50 g ai/ha
Procedure, shortened: as §2

cotton = assay: Phytotoxicity test for field crops (soil treatment test); design: key: 0 (no harm); 9 (complete withered)
Procedure, shortened: (§3)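 Visual phytotoxicity grading (0 no harm to 9 complete withering, relative to untreated control) 10 and 20 days after a pre-emergence soil spray applied one day post-sowing. Rates 19˜300 g a.i./ha in 33% acetone/0.1% Tween-20; sterilized soil pH 6.1, fertilized; greenhouse 30±5° C, 14/10 h photoperiod.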

corn = assay: as above; design: key: 0 (no harm); 9 (complete withered)
Procedure, shortened: as §3

rice = assay: as above; design: key: 0 (no harm); 9 (complete withered)
Procedure, shortened: as §3

wheat = assay: as above; design: key: 0 (no harm); 9 (complete withered)
Procedure, shortened: as §3

soybean = assay: as above; design: key: 0 (no harm); 9 (complete withered)
Procedure, shortened: as §3

quack grass = assay: Herbicidal activity test against upland field weeds (foliar treatment test); design: key to Foliar treatment herbicidal activity, quack grass: 0 (no control); 100 (complete control); details: scale 0-100
Procedure, shortened: as §2

barnyard grass [4] = assay: Herbicidal activity test against upland field weeds (soil treatment test); design: key to Soil treatment herbicidal activity, barnyard grass: 0 (no control); 100 (complete control); details: scale 0 (no control) to 100 (complete control)
Procedure, shortened: as §1

indian jointvetch = assay: as above; design: key to Soil treatment herbicidal activity, Indian jointvetch: 0 (no control); 100 (complete control); details: scale 0 (no control) to 100 (complete control)
Procedure, shortened: as §1

[5] = 50 g ai/ha, Cotton (10 days after treatment)
[6] = 50 g ai/ha, Cotton (20 days after treatment)
[7] = 100 g ai/ha, Cotton (10 days after treatment)
[8] = 100 g ai/ha, Cotton (20 days after treatment)
[9] = 50 g ai/ha, Corn (10 days after treatment)
[10] = 50 g ai/ha, Corn (20 days after treatment)
[11] = 100 g ai/ha, Corn (10 days after treatment)
[12] = 100 g ai/ha, Corn (20 days after treatment)
[13] = 50 g ai/ha, Rice (10 days after treatment)
[14] = 50 g ai/ha, Rice (20 days after treatment)
[15] = 100 g ai/ha, Rice (10 days after treatment)
[16] = 100 g ai/ha, Rice (20 days after treatment)
[17] = 50 g ai/ha, Wheat (10 days after treatment)
[18] = 50 g ai/ha, Wheat (20 days after treatment)
[19] = 100 g ai/ha, Wheat (10 days after treatment)
[20] = 100 g ai/ha, Wheat (20 days after treatment)
[21] = 50 g ai/ha, Soybean (10 days after treatment)
[22] = 50 g ai/ha, Soybean (20 days after treatment)
[23] = 100 g ai/ha, Soybean (10 days after treatment)
[24] = 100 g ai/ha, Soybean (20 days after treatment)

| Structure (SMILES) | Soil treatment phytotoxicity, Cotton (cotton; [5]) | Soil treatment phytotoxicity, Cotton (cotton; [6]) | Soil treatment phytotoxicity, Cotton (cotton; [7]) | Soil treatment phytotoxicity, Cotton (cotton; [8]) | Soil treatment phytotoxicity, Corn (corn; [9]) | Soil treatment phytotoxicity, Corn (corn; [10]) | Soil treatment phytotoxicity, Corn (corn; [11]) | Soil treatment phytotoxicity, Corn (corn; [12]) | Soil treatment phytotoxicity, Rice (rice; [13]) | Soil treatment phytotoxicity, Rice (rice; [14]) | Soil treatment phytotoxicity, Rice (rice; [15]) | Soil treatment phytotoxicity, Rice (rice; [16]) | Soil treatment phytotoxicity, Wheat (wheat; [17]) | Soil treatment phytotoxicity, Wheat (wheat; [18]) | Soil treatment phytotoxicity, Wheat (wheat; [19]) | Soil treatment phytotoxicity, Wheat (wheat; [20]) | Soil treatment phytotoxicity, Soybean (soybean; [21]) | Soil treatment phytotoxicity, Soybean (soybean; [22]) | Soil treatment phytotoxicity, Soybean (soybean; [23]) | Soil treatment phytotoxicity, Soybean (soybean; [24]) | further results |
| --- | --- | --- | --- | --- | --- | --- | --- | --- | --- | --- | --- | --- | --- | --- | --- | --- | --- | --- | --- | --- | --- |
| CN(Cc1nnn(C)n1)c1nc(C(F)(F)F)ccc1C(=O)Nc1nnnn1C [Compound No. 2-26, 2-(methyl((2-methyl-2H-tetrazol-5-yl)methyl)amino)-N-(1-methyl-1H-tetrazol-5-yl)-6-(trifluoromethyl)nicotinamide] | 1 | 4 | 1 | 4 | 0 | 0 | 0 | 0 | 3 | 9 | 6 | 9 | 0 | 0 | 0 | 0 | 6 | 4 | 7 | 7 | pest or weed control at 75 g/ha (cocklebur [1]; Xanthium strumarium, 75 g ai/ha): 98%; Soil treatment herbicidal activity, Bindweed (bindweed; 75 g ai/ha): 100; pest or weed control at 75 g/ha (crabgrass; Digitaria sanguinalis, 75 g ai/ha): 98%; pest or weed control at 75 g/ha (fall panicum; 75 g ai/ha): 70%; pest or weed control at 75 g/ha (cocklebur [2]; 75 g ai/ha): 98%; pest or weed control at 75 g/ha (barnyard grass [3]; 75 g ai/ha): 98%; Foliar treatment herbicidal activity, quack grass (quack grass; 75 g ai/ha): 0; Soil treatment herbicidal activity, barnyard grass (barnyard grass [4]; 75 g ai/ha): 100; Soil treatment herbicidal activity, Indian jointvetch (indian jointvetch; 75 g ai/ha): 100 |
| Cn1nnc(CSCc2nc(C(F)F)ccc2C(=O)Nc2nnnn2C)n1 [Compound No. 2-108, 6-(difluoromethyl)-N-(1-methyl-1H-tetrazol-5-yl)-2-((((2-methyl-2H-tetrazol-5-yl)methyl)thio)methyl)nicotinamide] | 0 | 1 | 0 | 3 | 0 | 0 | 0 | 0 | 0 | 0 | 0 | 0 | 0 | 0 | 0 | 0 | – | 0 | – | 3 | Soil treatment herbicidal activity, Cocklebur (cocklebur [1]): 0; Soil treatment herbicidal activity, Bindweed (bindweed; 50 g ai/ha): 0; Soil treatment herbicidal activity, Crabgrass (crabgrass): 0; pest or weed control at 50 g/ha (fall panicum): 50%; pest or weed control at 50 g/ha (cocklebur [2]): 98%; pest or weed control at 50 g/ha (barnyard grass [3]): 60%; Foliar treatment herbicidal activity, quack grass (quack grass; 50 g ai/ha): 0; Soil treatment herbicidal activity, barnyard grass (barnyard grass [4]; 50 g ai/ha): 0; Soil treatment herbicidal activity, Indian jointvetch (indian jointvetch; 50 g ai/ha): 0 |
| Cn1nnc(COCc2nc(C(F)(F)C(F)(F)F)ccc2C(=O)Nc2nnnn2C)n1 [Compound No. 2-81, N-(1-methyl-1H-tetrazol-5-yl)-2-(((2-methyl-2H-tetrazol-5-yl)methoxy)methyl)-6-(perfluoroethyl)nicotinamide] | 0 | 4 | 1 | 6 | 0 | 0 | 1 | 0 | 6 | 7 | 8 | 8 | 0 | 0 | 0 | 0 | 0 | 0 | 0 | 0 | Soil treatment herbicidal activity, Cocklebur (cocklebur [1]): 100; pest or weed control at 50 g/ha (bindweed; 50 g ai/ha): 70%; Soil treatment herbicidal activity, Crabgrass (crabgrass): 100; pest or weed control at 50 g/ha (fall panicum): 70%; pest or weed control at 50 g/ha (cocklebur [2]): 95%; pest or weed control at 50 g/ha (barnyard grass [3]): 80%; Foliar treatment herbicidal activity, quack grass (quack grass; 50 g ai/ha): 0; Soil treatment herbicidal activity, barnyard grass (barnyard grass [4]; 50 g ai/ha): 100; Soil treatment herbicidal activity, Indian jointvetch (indian jointvetch; 50 g ai/ha): 100 |
